# Target: GDP-loaded KRAS G12D (Homo sapiens, UniProt P01116, G12D)
# Experiment: KRAS G12D Probe Displacement Assay
# Format: binding
# Settings: KRAS G12D 0.5 nM, biotinylated probe 2 4 nM; Table 6 letters; read-out: KRAS G12D Probe Displacement Assay IC50 (class)
# Chain of GDP-loaded KRAS G12D (P01116 1-188 isoform P01116-2 G12D): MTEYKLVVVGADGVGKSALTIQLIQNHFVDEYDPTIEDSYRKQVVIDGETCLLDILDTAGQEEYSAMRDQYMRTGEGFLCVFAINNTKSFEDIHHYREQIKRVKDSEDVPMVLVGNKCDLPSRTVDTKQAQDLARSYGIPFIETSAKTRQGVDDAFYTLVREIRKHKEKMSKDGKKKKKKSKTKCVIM
row,Structure (SMILES),IC50 [nM]
1,"Nc1nc2c(-c3c(C(F)(F)F)cc4c(N5CC6CCC(C5)N6)nc(OCC5(CO)CCOCC5)nc4c3F)ccc(F)c2s1 [Example E187, (4-(((7-(2-amino-7-fluorobenzo[d]thiazol-4-yl)-4-(3,8-diazabicyclo[3.2.1]octan-3-yl)-8-fluoro-6-(trifluoromethyl)quinazolin-2-yl)oxy)methyl)tetrahydro-2H-pyran-4-yl)methanol]",< 50
2,"N#Cc1cncc(CCOc2nc(N3CC4CCC(C3)N4)c3cc(C(F)(F)F)c(-c4ccc(F)c5sc(N)nc45)c(F)c3n2)c1 [Example E188, 5-(2-((7-(2-amino-7-fluorobenzo[d]thiazol-4-yl)-4-(3,8-diazabicyclo[3.2.1]octan-3-yl)-8-fluoro-6-(trifluoromethyl)quinazolin-2-yl)oxy)ethyl) nicotinonitrile]",< 50
3,"Nc1nc2c(-c3c(C(F)(F)F)cc4c(N5CC6CCC(C5)N6)nc(OCCC5COC5)nc4c3F)ccc(F)c2s1 [Example E189, 4-(4-(3,8-diazabicyclo[3.2.1]octan-3-yl)-8-fluoro-2-(2-(oxetan-3-yl)ethoxy)-6-(trifluoromethyl)quinazolin-7-yl)-7-fluorobenzo[d]thiazol-2-amine]",< 50
4,"Nc1nc2c(-c3c(C(F)(F)F)cc4c(N5CC6CCC(C5)N6)nc(OCC5(CO)CCCC5)nc4c3F)ccc(F)c2s1 [Example E190, (1-(((7-(2-amino-7-fluorobenzo[d]thiazol-4-yl)-4-(3,8-diazabicyclo[3.2.1]octan-3-yl)-8-fluoro-6-(trifluoromethyl)quinazolin-2-yl)oxy)methyl)cyclopentyl)methanol]",< 50
5,"Nc1nc2c(-c3c(C(F)(F)F)cc4c(N5CC6CCC(C5)N6)nc(OCC5(CO)CCCCC5)nc4c3F)ccc(F)c2s1 [Example E191, (1-(((7-(2-amino-7-fluorobenzo[d]thiazol-4-yl)-4-(3,8-diazabicyclo[3.2.1]octan-3-yl)-8-fluoro-6-(trifluoromethyl)quinazolin-2-yl)oxy)methyl)cyclohexyl) methanol]",< 50
6,"N#CC1(COc2nc(N3CC4CCC(C3)N4)c3cc(C(F)(F)F)c(-c4ccc(F)c5sc(N)nc45)c(F)c3n2)CCCC1 [Example E192, 1-(((7-(2-amino-7-fluorobenzo[d]thiazol-4-yl)-4-(3,8-diazabicyclo [3.2.1]octan-3-yl)-8-fluoro-6-(trifluoromethyl)quinazolin-2-yl)oxy)methyl)cyclopentane-1-carbonitrile]",< 50
7,"Cc1cc(N)nc(-c2c(Cl)cc3c(N4CC5CCC(C4)N5)nc(OCC(C)(C)CO)nc3c2F)c1C(F)(F)F [Example E193, 3-((7-(6-amino-4-methyl-3-(trifluoromethyl)pyridin-2-yl)-4-(3,8-diazabicyclo[3.2.1]octan-3-yl)-6-chloro-8-fluoroquinazolin-2-yl)oxy)-2,2-dimethylpropan-1-ol]",< 50
8,"Cc1cc(N)nc(-c2c(Cl)cc3c(N4CC5CCC(C4)N5)nc(OCC(C)(C)C#N)nc3c2F)c1C(F)(F)F [Example E194, 3-((7-(6-amino-4-methyl-3-(trifluoromethyl)pyridin-2-yl)-4-(3,8-diazabicyclo[3.2.1]octan-3-yl)-6-chloro-8-fluoroquinazolin-2-yl)oxy)-2,2-dimethylpropanenitrile]",< 50
9,"Cc1cc(N)nc(-c2c(Cl)cc3c(N4CC5CCC(C4)N5)nc(OCC4(C#N)CCOCC4)nc3c2F)c1C(F)(F)F [Example E195, 4-(((7-(6-amino-4-methyl-3-(trifluoromethyl)pyridin-2-yl)-4-(3,8-diazabicyclo[3.2.1]octan-3-yl)-6-chloro-8-fluoroquinazolin-2-yl)oxy)methyl)tetrahydro-2H-pyran-4-carbonitrile]",< 50
10,"Cc1cc(N)nc(-c2c(Cl)cc3c(N4CC5CCC(C4)N5)nc(OCC4(CO)CCOCC4)nc3c2F)c1C(F)(F)F [Example E196, (4-(((7-(6-amino-4-methyl-3-(trifluoromethyl)pyridin-2-yl)-4-(3,8-diazabicyclo[3.2.1]octan-3-yl)-6-chloro-8-fluoroquinazolin-2-yl)oxy)methyl)tetrahydro-2H-pyran-4-yl)methanol]",< 50
11,"Cc1cc(N)nc(-c2c(Cl)cc3c(N4CC5CCC(C4)N5)nc(OCC4(CO)CC4)nc3c2F)c1C(F)(F)F [Example E197, (1-(((7-(6-amino-4-methyl-3-(trifluoromethyl)pyridin-2-yl)-4-(3,8-diazabicyclo[3.2.1]octan-3-yl)-6-chloro-8-fluoroquinazolin-2-yl)oxy)methyl)cyclopropyl) methanol]",< 50
12,"Cc1cc(N)nc(-c2c(Cl)cc3c(N4CC5CCC(C4)N5)nc(OCC4(CO)CCCC4)nc3c2F)c1C(F)(F)F [Example E198, (1-(((7-(6-amino-4-methyl-3-(trifluoromethyl)pyridin-2-yl)-4-(3,8-diazabicyclo[3.2.1]octan-3-yl)-6-chloro-8-fluoroquinazolin-2-yl)oxy)methyl)cyclopentyl) methanol]",50 to 100

# Second part, the compound after the results:
row,IC50 [nM],Structure (SMILES)
1,< 50,"CC12CC(COc3nc(N4CC5CCC(C4)N5)c4cc(C(F)(F)F)c(-c5ccc(F)c6sc(N)nc56)c(F)c4n3)(CO1)C2 [Example E174, 4-(4-(3,8-diazabicyclo[3.2.1]octan-3-yl)-8-fluoro-2-((1-methyl-2-oxabicyclo[2.1.1]hexan-4-yl)methoxy)-6-(trifluoromethyl)quinazolin-7-yl)-7-fluorobenzo[d] thiazol-2-amine]"
2,< 50,"CS(=O)(=O)N1CC(COc2nc(N3CC4CCC(C3)N4)c3cc(C(F)(F)F)c(-c4ccc(F)c5sc(N)nc45)c(F)c3n2)C1 [Example E175, 4-(4-(3,8-diazabicyclo[3.2.1]octan-3-yl)-8-fluoro-2-((1-(methylsulfonyl)azetidin-3-yl)methoxy)-6-(trifluoromethyl)quinazolin-7-yl)-7-fluorobenzo[d]thiazol-2-amine]"
3,< 50,"COC1(COc2nc(N3CC4CCC(C3)N4)c3cc(C(F)(F)F)c(-c4ccc(F)c5sc(N)nc45)c(F)c3n2)COC1 [Example E176, 4-(4-(3,8-diazabicyclo[3.2.1]octan-3-yl)-8-fluoro-2-((3-methoxyoxetan-3-yl)methoxy)-6-(trifluoromethyl)quinazolin-7-yl)-7-fluorobenzo[d] thiazol-2-amine]"
4,< 50,"Nc1nc2c(-c3c(C(F)(F)F)cc4c(N5CC6CCC(C5)N6)nc(OC5CC(O)C5)nc4c3F)ccc(F)c2s1 (stereo not shown) [Example E177, 3-((7-(2-amino-7-fluorobenzo[d]thiazol-4-yl)-4-(3,8-diazabicyclo [3.2.1]octan-3-yl)-8-fluoro-6-(trifluoromethyl)quinazolin-2-yl)oxy)cyclobutan-1-ol]"
5,< 50,"CN1CCCC(C#N)(COc2nc(N3CC4CCC(C3)N4)c3cc(Cl)c(-c4ccc(F)c5sc(N)nc45)c(F)c3n2)C1 (stereo not shown) [Example E178, 3-(((7-(2-amino-7-fluorobenzo[d]thiazol-4-yl)-4-(3,8-diazabicyclo [3.2.1]octan-3-yl)-6-chloro-8-fluoroquinazolin-2-yl)oxy)methyl)-1-methylpiperidine-3-carbonitrile]"
6,< 50,"Nc1nc2c(-c3c(C(F)(F)F)cc4c(N5CC6CCC(C5)N6)nc(OC[C@H]5CNC(=O)CO5)nc4c3F)ccc(F)c2s1 [Example E179, (6R)-6-(((7-(2-amino-7-fluorobenzo[d]thiazol-4-yl)-4-(3,8-diazabicyclo[3.2.1]octan-3-yl)-8-fluoro-6-(trifluoromethyl)quinazolin-2-yl)oxy)methyl)morpholin-3-one]"
7,< 50,"CC(F)(F)C1(COc2nc(N3CC4CCC(C3)N4)c3cc(C(F)(F)F)c(-c4ccc(F)c5sc(N)nc45)c(F)c3n2)COC1 [Example E180, 4-(4-(3,8-diazabicyclo[3.2.1]octan-3-yl)-2-((3-(1,1-difluoroethyl)oxetan-3-yl)methoxy)-8-fluoro-6-(trifluoromethyl)quinazolin-7-yl)-7-fluorobenzo[d]thiazol-2-amine]"
8,< 50,"CC1(COc2nc(N3CC4CCC(C3)N4)c3cc(C(F)(F)F)c(-c4ccc(F)c5sc(N)nc45)c(F)c3n2)CCOC1 (stereo not shown) [Example E181, 4-(4-(3,8-diazabicyclo[3.2.1]octan-3-yl)-8-fluoro-2-((3-methyltetrahydrofuran-3-yl)methoxy)-6-(trifluoromethyl)quinazolin-7-yl)-7-fluorobenzo[d]thiazol-2-amine]"
9,< 50,"CC1(COc2nc(N3CC4CCC(C3)N4)c3cc(C(F)(F)F)c(-c4ccc(F)c5sc(N)nc45)c(F)c3n2)CCOCC1 [Example E182, 4-(4-(3,8-diazabicyclo[3.2.1]octan-3-yl)-8-fluoro-2-((4-methyltetra hydro-2H-pyran-4-yl)methoxy)-6-(trifluoromethyl)quinazolin-7-yl)-7-fluorobenzo[d]thiazol-2-amine]"
10,< 50,"CC1(COc2nc(N3CC4CCC(C3)N4)c3cc(C(F)(F)F)c(-c4ccc(F)c5sc(N)nc45)c(F)c3n2)CCCOC1 (stereo not shown) [Example E183, 4-(4-(3,8-diazabicyclo[3.2.1]octan-3-yl)-8-fluoro-2-((3-methyltetra hydro-2H-pyran-3-yl)methoxy)-6-(trifluoromethyl)quinazolin-7-yl)-7-fluorobenzo[d]thiazol-2-amine]"
11,< 50,"Nc1nc2c(-c3c(C(F)(F)F)cc4c(N5CC6CCC(C5)N6)nc(OCCc5cccnc5)nc4c3F)ccc(F)c2s1 [Example E184, 4-(4-(3,8-diazabicyclo[3.2.1]octan-3-yl)-8-fluoro-2-(2-(pyridin-3-yl)ethoxy)-6-(trifluoromethyl)quinazolin-7-yl)-7-fluorobenzo [d]thiazol-2-amine]"
12,< 50,"Nc1nc2c(-c3c(C(F)(F)F)cc4c(N5CC6CCC(C5)N6)nc(OCCn5cccn5)nc4c3F)ccc(F)c2s1 [Example E185, 4-(2-(2-(1H-pyrazol-1-yl)ethoxy)-4-(3,8-diazabicyclo[3.2.1]octan-3-yl)-8-fluoro-6-(trifluoromethyl)quinazolin-7-yl)-7-fluorobenzo[d]thiazol-2-amine]"
13,< 50,"N#CC12CC(COc3nc(N4CC5CCC(C4)N5)c4cc(C(F)(F)F)c(-c5ccc(F)c6sc(N)nc56)c(F)c4n3)(C1)C2 [Example E186, 3-(((7-(2-amino-7-fluorobenzo[d]thiazol-4-yl)-4-(3,8-diazabicyclo [3.2.1]octan-3-yl)-8-fluoro-6-(trifluoromethyl)quinazolin-2-yl)oxy)methyl)bicyclo[1.1.1] pentane-1-carbonitrile]"

# Source: patent publication US20240140957A1, “BRIDGED COMPOUNDS AS KRAS G12D INHIBITOR AND DEGRADER AND THE USE THEREOF” (BeiGene Switzerland GmbH, priority 2021, published 2024)
